Experimental findings from patent US20260199273A1, “Compounds for the Treatment of Neuromuscular Disorders” (NMD PHARMA A/S, priority 2022, published 2026) are described below.

Assay [1] has as its target T1, CIC-1 ion channel (Rattus norvegicus, UniProt P35524).
T1 construct: from tissue; host or cells: whole soleus muscle of 12-14 week old Wistar rats
T1 sequence (P35524 1-994): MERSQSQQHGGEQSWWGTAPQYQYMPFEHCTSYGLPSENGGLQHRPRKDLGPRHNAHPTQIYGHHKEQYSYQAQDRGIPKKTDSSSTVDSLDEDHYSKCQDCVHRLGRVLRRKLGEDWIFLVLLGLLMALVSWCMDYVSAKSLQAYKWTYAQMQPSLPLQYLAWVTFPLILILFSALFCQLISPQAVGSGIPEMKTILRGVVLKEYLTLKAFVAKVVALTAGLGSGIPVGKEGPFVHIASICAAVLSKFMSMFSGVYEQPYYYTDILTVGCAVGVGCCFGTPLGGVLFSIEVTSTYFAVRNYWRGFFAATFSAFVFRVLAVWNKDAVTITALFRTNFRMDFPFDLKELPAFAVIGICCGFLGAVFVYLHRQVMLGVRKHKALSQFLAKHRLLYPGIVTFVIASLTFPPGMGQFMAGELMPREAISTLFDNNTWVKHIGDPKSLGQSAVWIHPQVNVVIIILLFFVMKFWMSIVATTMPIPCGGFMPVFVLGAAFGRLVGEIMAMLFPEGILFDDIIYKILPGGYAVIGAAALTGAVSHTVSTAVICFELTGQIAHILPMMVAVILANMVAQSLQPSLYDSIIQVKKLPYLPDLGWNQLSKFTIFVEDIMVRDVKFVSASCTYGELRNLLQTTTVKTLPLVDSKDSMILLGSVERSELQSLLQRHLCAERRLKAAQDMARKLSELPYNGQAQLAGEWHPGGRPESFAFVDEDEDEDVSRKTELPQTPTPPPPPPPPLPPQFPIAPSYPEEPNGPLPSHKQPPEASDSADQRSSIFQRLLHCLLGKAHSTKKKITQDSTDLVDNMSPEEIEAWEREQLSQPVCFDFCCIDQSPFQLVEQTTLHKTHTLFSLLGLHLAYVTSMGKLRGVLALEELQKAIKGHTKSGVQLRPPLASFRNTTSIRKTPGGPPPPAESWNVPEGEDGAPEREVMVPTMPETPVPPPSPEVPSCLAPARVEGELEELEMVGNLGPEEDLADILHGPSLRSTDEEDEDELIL
Kind of assay: Electrophysiological measurement of compound inhibition of CIC-1 in rat muscle (Gm in soleus fibres, three micro-electrodes). It counts as cell-based. Particulars: Gm in individual fibres of whole rat soleus muscles, approx. 30° C., four increasing compound concentrations; read-out: Potency Range (EC50, inhibition of CIC-1 ion channel). In outline:
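Membrane conductance (Gm) recorded by three micro-electrodes in soleus fibres of intact muscles from 12-14 week old Wistar rats, Krebs Ringer, ~30° C, pH ~7.4; 50 ms −30 nA pulses, Gm from cable-theory fit. Control Gm in 10 fibres, then four rising concentrations (5-10 fibres each); EC50 by sigmoidal fit.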

In assay [2] the test system is isolated rat soleus nerve-muscle preparations. Nature of the assay: Measurement of force in an in vitro model: recovery of nerve-stimulated contractile force after tubocurarine. Conditions: 40 min, after 40 mins of compound exposure, tubocurarine (115 nM) for 90 minutes, read-out: Point increase (%): percentage increase of initial force that was restored; for activation at 50 µM: 50 μM of test compound; for activation at 10 µM: 10 μM of test compound. The gist of the method: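 Isolated soleus nerve-muscle preparations from 4-5 week old rats, nerve-stimulated in Krebs Ringer at 30° C, 95% O2/5% CO2, pH ~7.4. Force reduced with 115 nM tubocurarine for 90 min, then compound added. Value is percentage-point increase in initial force restored after 40 min compound exposure.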

Consider `Cc1c(Cl)cc2c(c1C(=O)O)OCCC2` [Compound A-14, 6-Chloro-7-methyl-3,4-dihydro-2H-1-benzopyran-8-carboxylic acid], for which, in assay [1], the EC50 fell in the range of 10000 to 20000 nM. For the same compound, the activation at 50 µM in assay [2] turned out to be 39%.
On to `O=C(O)c1c(Cl)c(Cl)cc2c1CCCC2` [Compound A-30, 2,3-Dichloro-5,6,7,8-tetrahydronaphthalene-1-carboxylic acid], for which the half-maximal effective concentration (EC50) in assay [1] was in the range of 200 to 2000 nM. In assay [2], the activation at 10 µM is 45%.
As for `COc1c(Cl)cc2c(c1C(=O)O)OCC2` [Compound A-15, 5-Chloro-6-methoxy-2,3-dihydro-1-benzofuran-7-carboxylic acid], the EC50 in assay [1] was in the range of 2000 to 10000 nM. Also, in assay [2], the activation at 50 µM came out at 40%.
For `COc1c(Cl)cc2c(c1C(=O)O)OCCC2` [Compound A-69, 6-Chloro-7-methoxy-3,4-dihydro-2H-1-benzopyran-8-carboxylic acid], the EC50 in assay [1] lay within 200 to 2000 nM. For the same compound, the activation at 10 µM in assay [2] was 55%.
Consider `O=C(O)c1cc(Cl)cc2c1CCCC2` [Compound A-3, 3-chloro-5,6,7,8-tetrahydronaphthalene-1-carboxylic acid], for which the EC50 in assay [1] fell in the range of 2000 to 10000 nM. In assay [2], the activation at 10 µM is 38%.
As for `COc1c(Cl)cc2c(c1C(=O)O)SCCC2` [Compound A-31, 6-chloro-7-methoxy-3,4-dihydro-2H-1-benzothiopyran-8-carboxylic acid], the EC50 in assay [1] was 200 to 2000 nM. For the same compound, the activation at 10 µM in assay [2] is 48%.
Consider `Cc1c(Cl)cc2c(c1C(=O)O)CCCCC2` [Compound A-33, 3-Chloro-2-methyl-6,7,8,9-tetrahydro-5H-benzo[7]annulene-1-carboxylic acid], for which the half-maximal effective concentration (EC50) in assay [1] lay within 2000 to 10000 nM. In addition, the activation at 10 µM in assay [2] amounted to 17%.
Turning to `Cc1cc2c(c(C(=O)O)c1C)CCC2` [Compound A-4, 5,6-dimethyl-2,3-dihydro-1H-indene-4-carboxylic acid], in assay [1], the EC50 lay in the range of 10000 to 20000 nM. In addition, the activation at 50 µM in assay [2] worked out at 30%.
For `Cc1cc2c(c(C(=O)O)c1Cl)C1CCC2C1` (centres unmarked) [Compound A-20, 4-chloro-5-methyltricyclo[6.2.1.0^2,7]undeca-2,4,6-triene-3-carboxylic acid], the EC50 in assay [1] fell in the range of 2000 to 10000 nM. Besides, the activation at 50 µM in assay [2] was determined as 38%.
For `COc1cc2c(c(C(=O)O)c1Cl)CCCCC2` [Compound A-24, 2-Chloro-3-methoxy-6,7,8,9-tetrahydro-5H-benzo[7]annulene-1-carboxylic acid], the EC50 in assay [1] lay within 2000 to 10000 nM. In assay [2], the activation at 50 µM was 43%.
Consider `COc1c(Cl)cc2c(c1C(=O)O)CCCC2` [Compound A-8, 3-Chloro-2-methoxy-5,6,7,8-tetrahydronaphthalene-1-carboxylic acid], for which, in assay [1], the 50% effective concentration (EC50) is 200 to 2000 nM. In assay [2], the activation at 10 µM worked out at 50%.
Take `O=C(O)c1c(F)c(Cl)cc2c1N(Cc1ccsc1)CCC2` [Compound A-70, 6-Chloro-7-fluoro-1-[(3-thienyl)methyl]-1,2,3,4-tetrahydro-8-quinolinecarboxylic acid]: the EC50 in assay [1] was 200 to 2000 nM. Moreover, the activation at 10 µM in assay [2] was 25%.
Consider `O=C(O)c1c(Cl)c(F)cc2c1OCCCC2` [Compound A-56, 8-chloro-7-fluoro-2,3,4,5-tetrahydro-1-benzoxepine-9-carboxylic acid], for which the EC50 in assay [1] was in the range of 2000 to 10000 nM. For the same compound, the activation at 10 µM in assay [2] is 31%.
For `O=C(O)c1c(F)c(Cl)cc2c1CCCS2` [Compound A-65, 7-chloro-6-fluoro-3,4-dihydro-2H-1-benzothiopyran-5-carboxylic acid], in assay [1], the EC50 was 200 to 2000 nM. Also, the activation at 10 µM in assay [2] is 49%.
On to `O=C(O)c1c2c(cc(Cl)c1OC(F)F)CCC2` [Compound A-10, 6-Chloro-5-(difluoromethoxy)-2,3-dihydro-1H-indene-4-carboxylic acid], for which, in assay [1], the EC50 lay within 2000 to 10000 nM. For the same compound, the activation at 10 µM in assay [2] came out at 36%.
On to `CSc1c(Cl)cc2c(c1C(=O)O)CCCC2` [Compound A-32, 3-Chloro-2-(methylsulfanyl)-5,6,7,8-tetrahydronaphthalene-1-carboxylic acid], for which, in assay [1], the EC50 lay in the range of 200 to 2000 nM. For the same compound, in assay [2], the activation at 10 µM was found to be 24%.
For the compound `O=C(O)c1c(F)c(Cl)cc2c1SCCC2` [Compound A-38, 6-Chloro-7-fluoro-3,4-dihydro-2H-1-benzothiopyran-8-carboxylic acid], in assay [1], the EC50 lay within 200 to 2000 nM. In assay [2], the activation at 10 µM stood at 48%.
Take `CCc1cc2c(c(C(=O)O)c1F)CCCC2` [Compound A-51, 3-Ethyl-2-fluoro-5,6,7,8-tetrahydronaphthalene-1-carboxylic acid]: in assay [1], the EC50 fell in the range of 2000 to 10000 nM. For the same compound, the activation at 10 µM in assay [2] turned out to be 29%.
Take `O=C(O)c1c(F)c(Cl)cc2c1CCC2` [Compound A-63, 6-Chloro-5-fluoro-2,3-dihydro-1H-indene-4-carboxylic acid]: the EC50 in assay [1] was 2000 to 10000 nM. In addition, in assay [2], the activation at 10 µM was 28%.

The term EC50 denotes the concentration at which the effect is half-maximal.
